# Experimental data from ChEMBL document CHEMBL1201862, “PubChem BioAssay data set” (2004).
# Active and inactive are the calls of the source.
# Experiments:
# [1] = target: Alkaline phosphatase, placental type (Homo sapiens, UniProt P05187); test: human placental alkaline phosphatase inhibition – biochemical, luminescence, confirmation (AID 1512); format: functional
# [2] = target: Glyceraldehyde-3-phosphate dehydrogenase (Homo sapiens, UniProt P04406)
# [3] = target: T1, Tyrosine-protein phosphatase non-receptor type 7 (Homo sapiens, UniProt P35236); test: SAR analysis of chemical inhibitors of HePTP using a Fluorescent assay - Set 2. [Related pubchem assays (depositor defined):AID1059, AID1077, AID1661, AID2085, AID521]; format: functional
# T1 sequence (P35236 whole entry): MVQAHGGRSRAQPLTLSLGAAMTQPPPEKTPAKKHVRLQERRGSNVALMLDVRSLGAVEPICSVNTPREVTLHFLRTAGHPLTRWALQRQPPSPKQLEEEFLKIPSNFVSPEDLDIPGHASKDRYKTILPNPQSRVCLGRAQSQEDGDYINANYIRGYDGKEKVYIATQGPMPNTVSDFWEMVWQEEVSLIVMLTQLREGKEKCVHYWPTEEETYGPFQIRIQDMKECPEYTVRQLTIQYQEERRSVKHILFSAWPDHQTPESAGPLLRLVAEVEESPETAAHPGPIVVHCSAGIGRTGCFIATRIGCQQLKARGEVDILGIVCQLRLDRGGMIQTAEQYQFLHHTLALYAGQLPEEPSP
# [4] = target: Dual specificity protein phosphatase 3 (Homo sapiens, UniProt P51452); test: SAR VHR1 Fluorescent Assay for In Vitro dose response studies Set 2. [Related pubchem assays (depositor defined):AID1654, AID1661, AID1878]; format: functional
# [5] = target: T2, Sentrin-specific protease 7 (Homo sapiens, UniProt Q9BQF6); format: functional;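 further: Luminescence-based dose-response confirmation of ultra-high-throughput screening hits, measuring inhibition of SENP7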
# T2 sequence (Q9BQF6 whole entry): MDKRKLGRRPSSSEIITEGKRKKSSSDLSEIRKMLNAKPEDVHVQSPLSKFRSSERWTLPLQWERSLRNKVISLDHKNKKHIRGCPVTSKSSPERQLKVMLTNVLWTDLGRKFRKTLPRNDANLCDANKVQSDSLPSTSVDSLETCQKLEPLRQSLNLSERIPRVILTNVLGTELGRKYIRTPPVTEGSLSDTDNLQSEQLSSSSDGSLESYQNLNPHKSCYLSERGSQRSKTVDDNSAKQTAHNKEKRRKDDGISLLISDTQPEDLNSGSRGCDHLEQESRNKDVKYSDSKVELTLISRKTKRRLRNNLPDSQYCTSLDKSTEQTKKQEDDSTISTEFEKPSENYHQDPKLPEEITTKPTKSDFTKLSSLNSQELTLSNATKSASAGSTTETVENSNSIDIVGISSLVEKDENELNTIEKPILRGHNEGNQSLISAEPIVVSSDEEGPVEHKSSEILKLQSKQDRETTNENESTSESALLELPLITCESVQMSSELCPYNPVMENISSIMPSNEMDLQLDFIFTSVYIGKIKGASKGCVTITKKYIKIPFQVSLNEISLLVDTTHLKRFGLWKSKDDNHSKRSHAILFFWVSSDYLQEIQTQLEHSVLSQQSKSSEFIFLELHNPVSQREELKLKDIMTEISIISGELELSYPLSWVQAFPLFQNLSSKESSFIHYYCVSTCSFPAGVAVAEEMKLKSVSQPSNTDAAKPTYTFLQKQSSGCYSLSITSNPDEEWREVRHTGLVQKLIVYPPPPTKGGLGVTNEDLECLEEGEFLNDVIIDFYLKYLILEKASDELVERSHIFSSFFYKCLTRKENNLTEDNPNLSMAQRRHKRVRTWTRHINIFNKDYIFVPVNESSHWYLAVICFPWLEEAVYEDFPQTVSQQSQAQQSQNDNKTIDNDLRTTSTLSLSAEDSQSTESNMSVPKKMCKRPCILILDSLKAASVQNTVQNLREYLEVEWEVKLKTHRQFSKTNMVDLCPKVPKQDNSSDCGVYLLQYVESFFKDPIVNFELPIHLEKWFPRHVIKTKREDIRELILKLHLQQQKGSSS
# Caspase-3 = target: T3, Caspase-3 (Homo sapiens, UniProt P42574); format: functional;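 further: Dose-response selectivity test against caspase-3 for candidate inhibitors of sentrin-specific proteases (SENPs)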
# T3 sequence (P42574 whole entry): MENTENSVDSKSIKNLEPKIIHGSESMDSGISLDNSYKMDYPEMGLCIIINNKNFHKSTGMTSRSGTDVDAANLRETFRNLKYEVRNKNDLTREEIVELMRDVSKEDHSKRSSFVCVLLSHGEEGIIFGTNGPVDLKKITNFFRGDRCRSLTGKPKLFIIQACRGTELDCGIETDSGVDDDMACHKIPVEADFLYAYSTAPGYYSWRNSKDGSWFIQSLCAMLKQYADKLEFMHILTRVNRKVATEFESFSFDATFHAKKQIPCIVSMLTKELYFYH
# HEK293 = test: EBV LMP1 TES2 canonical NF-kB signalling blockers – cell-based, HEK293, luciferase, cherry-pick, dose response (AID 588343); format: functional; settings: Homo sapiens
# [6] = target: T4, Sentrin-specific protease 6 (Homo sapiens, UniProt Q9GZR1); format: functional;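 further: Luminescence-based dose-response confirmatory assay of SENP6 inhibition, following up an ultra-high-throughput screen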
# T4 sequence (Q9GZR1 whole entry): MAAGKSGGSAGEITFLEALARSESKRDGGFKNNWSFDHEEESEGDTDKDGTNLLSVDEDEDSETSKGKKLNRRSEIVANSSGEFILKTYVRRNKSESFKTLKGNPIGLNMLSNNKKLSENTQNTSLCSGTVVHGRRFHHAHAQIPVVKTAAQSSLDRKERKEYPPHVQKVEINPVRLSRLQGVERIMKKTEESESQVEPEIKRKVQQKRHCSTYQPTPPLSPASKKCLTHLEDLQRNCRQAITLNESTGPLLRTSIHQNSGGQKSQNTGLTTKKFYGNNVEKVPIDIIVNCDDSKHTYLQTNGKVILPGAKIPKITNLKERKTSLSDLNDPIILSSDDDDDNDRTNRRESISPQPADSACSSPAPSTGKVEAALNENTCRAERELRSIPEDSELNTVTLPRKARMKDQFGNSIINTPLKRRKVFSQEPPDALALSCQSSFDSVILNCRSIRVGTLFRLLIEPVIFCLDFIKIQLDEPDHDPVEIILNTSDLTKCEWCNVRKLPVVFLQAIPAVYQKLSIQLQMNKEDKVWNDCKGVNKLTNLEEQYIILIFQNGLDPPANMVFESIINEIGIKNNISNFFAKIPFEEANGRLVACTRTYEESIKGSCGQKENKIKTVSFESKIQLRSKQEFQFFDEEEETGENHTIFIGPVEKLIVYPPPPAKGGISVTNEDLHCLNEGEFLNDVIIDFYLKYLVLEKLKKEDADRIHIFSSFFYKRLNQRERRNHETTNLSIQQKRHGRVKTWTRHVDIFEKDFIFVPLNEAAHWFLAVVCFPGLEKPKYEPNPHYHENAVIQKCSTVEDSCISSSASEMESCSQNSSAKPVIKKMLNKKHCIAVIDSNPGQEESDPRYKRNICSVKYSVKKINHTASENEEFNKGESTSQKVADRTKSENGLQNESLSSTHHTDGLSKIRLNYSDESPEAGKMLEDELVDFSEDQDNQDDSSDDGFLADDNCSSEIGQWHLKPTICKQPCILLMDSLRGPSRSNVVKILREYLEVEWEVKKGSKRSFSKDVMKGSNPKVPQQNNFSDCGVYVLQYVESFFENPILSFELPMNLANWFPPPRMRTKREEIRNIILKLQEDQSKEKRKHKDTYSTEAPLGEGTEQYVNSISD
# cells = format: functional, cell-based
# [7] = target: T5, Sentrin-specific protease 8 (Homo sapiens, UniProt Q96LD8); format: functional;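 further: luminescence read-out of SENP8 inhibition, dose-response confirmation following an ultra-high-throughput screen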
# T5 sequence (Q96LD8 whole entry): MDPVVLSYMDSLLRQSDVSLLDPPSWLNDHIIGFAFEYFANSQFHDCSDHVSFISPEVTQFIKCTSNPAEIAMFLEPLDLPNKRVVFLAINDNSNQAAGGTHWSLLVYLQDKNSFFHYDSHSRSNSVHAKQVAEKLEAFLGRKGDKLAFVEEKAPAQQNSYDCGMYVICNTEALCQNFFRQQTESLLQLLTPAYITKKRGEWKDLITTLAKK
# [8] = target: Nuclear receptor subfamily 0 group B member 1 (Homo sapiens, UniProt P51843); format: functional, cell-based;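 further: HEK293T cells transfected with SF-1 and DAX-1 plus StAR promoter luciferase reporter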
# Protein RecA = target: T6, Protein RecA (Mycobacterium tuberculosis, UniProt P9WHJ3); test: Fluorescence Cell-Free Homogeneous Dose Retest to Identify Inhibitors of RecA-Intein Splicing Activity. [Related pubchem assays (depositor defined):AID2097, AID2223, AID489010, AID492950]; format: functional
# T6 sequence (P9WHJ3 whole entry): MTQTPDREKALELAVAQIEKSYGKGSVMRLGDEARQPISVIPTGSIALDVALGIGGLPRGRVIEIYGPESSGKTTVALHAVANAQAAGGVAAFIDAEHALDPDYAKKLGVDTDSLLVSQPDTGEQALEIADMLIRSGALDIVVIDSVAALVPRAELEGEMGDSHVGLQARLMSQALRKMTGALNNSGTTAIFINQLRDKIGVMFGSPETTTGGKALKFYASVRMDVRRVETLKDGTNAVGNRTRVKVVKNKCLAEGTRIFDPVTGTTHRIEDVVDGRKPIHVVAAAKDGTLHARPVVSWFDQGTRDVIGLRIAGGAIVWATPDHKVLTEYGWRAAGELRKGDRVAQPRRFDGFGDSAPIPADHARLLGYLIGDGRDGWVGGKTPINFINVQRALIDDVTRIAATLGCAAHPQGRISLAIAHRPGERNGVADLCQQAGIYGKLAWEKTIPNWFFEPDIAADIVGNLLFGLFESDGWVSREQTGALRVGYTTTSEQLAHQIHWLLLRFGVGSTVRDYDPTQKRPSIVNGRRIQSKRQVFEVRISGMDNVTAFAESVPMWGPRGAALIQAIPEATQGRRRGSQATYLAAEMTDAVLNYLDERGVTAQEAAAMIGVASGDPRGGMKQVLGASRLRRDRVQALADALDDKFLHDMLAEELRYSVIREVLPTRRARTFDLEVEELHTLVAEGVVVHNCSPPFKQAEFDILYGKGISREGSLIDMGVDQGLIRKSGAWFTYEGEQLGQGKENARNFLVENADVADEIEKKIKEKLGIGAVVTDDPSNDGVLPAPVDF
# [9] = target: T7, Heat shock factor protein 1 (Mus musculus, UniProt P38532); test: enhancement of HSF1-driven luciferase signal – cell-based, NIH3T3, luminescence, dose retest, confirmation (AID 435004); format: functional;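 further: stress induced by proteasome inhibitor MG132 added 30 min after compound; luciferase reporter driven by HSF1 response element in NIH3T3 cells; actives raise luminescence as potentiators of the MG132 stress response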
# T7 sequence (P38532 whole entry): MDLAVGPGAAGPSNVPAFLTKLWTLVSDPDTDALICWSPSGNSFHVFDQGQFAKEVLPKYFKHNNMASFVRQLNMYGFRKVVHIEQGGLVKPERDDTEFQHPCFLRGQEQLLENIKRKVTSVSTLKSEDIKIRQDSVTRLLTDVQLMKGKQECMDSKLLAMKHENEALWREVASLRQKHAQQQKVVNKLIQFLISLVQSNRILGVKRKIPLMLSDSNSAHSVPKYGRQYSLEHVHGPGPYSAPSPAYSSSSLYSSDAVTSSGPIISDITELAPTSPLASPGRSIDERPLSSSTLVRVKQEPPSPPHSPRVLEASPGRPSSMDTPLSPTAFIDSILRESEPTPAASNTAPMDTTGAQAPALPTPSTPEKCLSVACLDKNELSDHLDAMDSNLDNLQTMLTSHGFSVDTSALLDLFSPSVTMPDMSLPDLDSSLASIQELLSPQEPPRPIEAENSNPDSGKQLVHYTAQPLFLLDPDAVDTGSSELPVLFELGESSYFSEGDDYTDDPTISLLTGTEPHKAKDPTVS
# [10] = target: T8, Replicative DNA helicase DnaB (Mycobacterium tuberculosis, UniProt P9WMR3); test: DnaB intein splicing inhibitors, dose response, biochemical, cell-free fluorescence (AID 449749); format: functional
# T8 sequence (P9WMR3 whole entry): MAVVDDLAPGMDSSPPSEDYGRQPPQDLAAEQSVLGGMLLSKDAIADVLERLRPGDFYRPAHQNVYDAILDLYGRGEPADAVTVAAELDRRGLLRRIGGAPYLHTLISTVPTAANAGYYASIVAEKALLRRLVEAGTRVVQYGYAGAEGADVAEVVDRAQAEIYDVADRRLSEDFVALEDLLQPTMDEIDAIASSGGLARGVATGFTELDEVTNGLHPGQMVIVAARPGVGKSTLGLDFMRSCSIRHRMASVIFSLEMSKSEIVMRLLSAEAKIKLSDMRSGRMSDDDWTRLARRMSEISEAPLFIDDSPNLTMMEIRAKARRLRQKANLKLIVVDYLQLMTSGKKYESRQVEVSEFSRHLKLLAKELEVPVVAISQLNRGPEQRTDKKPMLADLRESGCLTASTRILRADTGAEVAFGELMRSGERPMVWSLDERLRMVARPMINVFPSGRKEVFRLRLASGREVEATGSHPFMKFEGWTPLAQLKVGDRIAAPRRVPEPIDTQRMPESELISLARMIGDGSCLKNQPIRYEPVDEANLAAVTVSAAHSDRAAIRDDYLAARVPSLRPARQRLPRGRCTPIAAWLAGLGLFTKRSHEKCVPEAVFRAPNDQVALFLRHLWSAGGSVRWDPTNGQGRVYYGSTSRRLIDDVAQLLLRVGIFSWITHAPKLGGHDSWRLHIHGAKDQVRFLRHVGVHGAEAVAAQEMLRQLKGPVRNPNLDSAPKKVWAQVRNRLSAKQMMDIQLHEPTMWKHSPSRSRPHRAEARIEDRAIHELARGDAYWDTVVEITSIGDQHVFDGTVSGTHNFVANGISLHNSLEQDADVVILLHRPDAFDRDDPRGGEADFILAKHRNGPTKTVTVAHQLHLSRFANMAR
# [11] = target: G-protein coupled receptor 55 (Homo sapiens, UniProt Q9Y2T6); test: inhibition of LPI-stimulated GPR55 beta-arrestin translocation – imaging, U2OS, beta-arrestin-GFP, LPI agonist, primary screen (AID 2013); format: functional;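 further: antagonist potency measured as reduced agonist-driven arrestin aggregation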
# Chain of G-protein coupled receptor 55 (Q9Y2T6 whole entry): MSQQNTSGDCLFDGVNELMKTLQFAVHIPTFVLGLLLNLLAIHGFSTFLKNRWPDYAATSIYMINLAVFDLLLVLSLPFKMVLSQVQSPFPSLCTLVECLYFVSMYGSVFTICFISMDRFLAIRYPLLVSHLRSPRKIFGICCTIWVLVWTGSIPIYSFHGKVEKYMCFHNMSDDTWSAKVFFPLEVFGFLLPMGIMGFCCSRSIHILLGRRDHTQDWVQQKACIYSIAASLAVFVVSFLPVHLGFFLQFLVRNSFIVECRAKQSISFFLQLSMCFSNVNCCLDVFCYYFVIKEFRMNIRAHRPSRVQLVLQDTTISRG
# Chain of Nuclear receptor subfamily 0 group B member 1 (P51843 whole entry): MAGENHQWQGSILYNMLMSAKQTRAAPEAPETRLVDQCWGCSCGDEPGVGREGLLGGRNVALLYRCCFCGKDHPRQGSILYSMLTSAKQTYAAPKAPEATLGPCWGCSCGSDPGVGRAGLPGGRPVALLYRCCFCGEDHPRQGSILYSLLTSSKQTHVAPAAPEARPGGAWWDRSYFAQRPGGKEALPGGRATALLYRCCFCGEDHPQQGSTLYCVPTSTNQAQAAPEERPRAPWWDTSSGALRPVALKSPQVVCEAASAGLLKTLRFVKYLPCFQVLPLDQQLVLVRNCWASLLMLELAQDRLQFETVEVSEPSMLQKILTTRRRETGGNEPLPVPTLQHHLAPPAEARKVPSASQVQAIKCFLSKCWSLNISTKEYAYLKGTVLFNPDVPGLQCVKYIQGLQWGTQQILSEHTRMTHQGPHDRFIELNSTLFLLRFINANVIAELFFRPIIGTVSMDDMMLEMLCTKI
# Chain of Alkaline phosphatase, placental type (P05187 whole entry): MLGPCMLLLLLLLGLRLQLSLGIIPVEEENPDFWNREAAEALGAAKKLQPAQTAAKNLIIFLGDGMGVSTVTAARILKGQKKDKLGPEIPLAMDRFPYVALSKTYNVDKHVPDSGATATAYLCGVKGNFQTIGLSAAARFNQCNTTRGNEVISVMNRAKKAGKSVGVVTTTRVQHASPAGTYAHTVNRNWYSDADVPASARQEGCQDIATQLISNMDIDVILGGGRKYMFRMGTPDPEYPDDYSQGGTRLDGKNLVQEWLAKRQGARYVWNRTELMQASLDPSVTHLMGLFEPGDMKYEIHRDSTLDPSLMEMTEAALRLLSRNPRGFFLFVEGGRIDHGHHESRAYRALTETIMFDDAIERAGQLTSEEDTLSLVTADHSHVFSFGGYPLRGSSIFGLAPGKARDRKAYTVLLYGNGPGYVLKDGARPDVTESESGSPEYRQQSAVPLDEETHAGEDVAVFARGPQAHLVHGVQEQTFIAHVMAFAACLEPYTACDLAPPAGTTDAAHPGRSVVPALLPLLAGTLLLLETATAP
# Chain of Dual specificity protein phosphatase 3 (P51452 whole entry): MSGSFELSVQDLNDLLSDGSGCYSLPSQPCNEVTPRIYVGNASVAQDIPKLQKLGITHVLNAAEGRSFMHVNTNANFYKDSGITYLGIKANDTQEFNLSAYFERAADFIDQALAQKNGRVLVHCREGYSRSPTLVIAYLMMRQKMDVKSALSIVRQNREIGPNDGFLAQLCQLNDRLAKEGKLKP
# Chain of Glyceraldehyde-3-phosphate dehydrogenase (P04406 whole entry): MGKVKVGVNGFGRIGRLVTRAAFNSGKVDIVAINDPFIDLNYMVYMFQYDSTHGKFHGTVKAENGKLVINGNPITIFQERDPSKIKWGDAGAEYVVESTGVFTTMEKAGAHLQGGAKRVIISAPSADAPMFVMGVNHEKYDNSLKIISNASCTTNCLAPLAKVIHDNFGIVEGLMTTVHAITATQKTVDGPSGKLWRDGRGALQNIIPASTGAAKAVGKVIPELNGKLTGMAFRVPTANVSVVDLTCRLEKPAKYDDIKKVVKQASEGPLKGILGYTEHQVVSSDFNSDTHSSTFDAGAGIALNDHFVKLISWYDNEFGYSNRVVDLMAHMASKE
smiles,measurement,setting,value
O=C(c1cc(-c2ccc(Cl)cc2Cl)n[nH]1)N1CCCCCC1,IC50,[1],> 100 µM (inactive)
same,IC50,[2],> 100 µM (not active)
O=S(=O)(c1ccc(NC(=S)N2CCN(Cc3ccc4c(c3)OCO4)CC2)cc1)N1CCOCC1,IC50,[3],79.6 µM (active)
same,IC50,[4],> 100 µM (inactive)
Cc1ccn2c(c1)nc(=S)n2C(=O)c1ccccc1,IC50,[5],4.09 µM (active)
same,IC50,Caspase-3,46.5 µM (active)
same,AC50,HEK293,0.814 µM (active)
same,IC50,[6],72.3 µM (active)
same,IC50,cells,> 67.5 µM (inactive)
same,IC50,[7],94.9 µM (active)
same,IC50,[8],> 0.0926 µM (active)
Clc1ncnc2scc(C3COc4ccccc4O3)c12 (stereo not given),EC50,Protein RecA,3.97 µM (active)
same,EC50,[9],21.4 µM (active)
same,AC50,[10],7.16 µM (active)
same,IC50,[11],3.38 µM (active)
